Data on nine compounds can be found in EP1350541A1, “Use of dehydroepiandrosterone and an estradiol derivative for preparing a medicament for treating postmenopausal climacteric disorders” (priority 2002, dated 2003).

Like-named read-outs stand apart in the source and are kept apart here.

For one data set, the system named is bcl-2. The data set can be described thus: Expression of the antiapoptotic gene bcl-2 in the hippocampus of ovariectomised rats. The format is in vivo, Ratten. To be noted: female ovariectomised rats; vs OVX control (p<0.01); Abbildung 4.
Data set [1] deals with Oxytocin (Nachweis der OT mRNA). The data set can be described thus: Induction of the estrogen-dependent oxytocin gene (OT mRNA) in the brain of ovariectomised rats. The data set is classed as in vivo, Ratten. Conditions: brain of female ovariectomised rats; Abbildung 3. The text has this:
(§1) In Abbildung 3 werden zwei weitere Beispiele für typische Estrogenwirkungen im Gehirn von weiblichen, ovarektomierten Ratten dargestellt. […] (* Bedeutet statistisch signifikant gegenüber der Kontrollgruppe (p<0.01))

Data set [2] concerns Corticotropin-Releaseinghormon (Nachweis der CRH mRNA). The data set can be described thus: Induction of the estrogen-dependent CRH gene (CRH mRNA) in the brain of ovariectomised rats. To be noted: brain of female ovariectomised rats; Abbildung 3. The format is in vivo, Ratten.
Text: as §1

Data set [3] can be described thus: Stabilisation of the unstable steroids in drug formulations by stabilisers. The format is physicochemical. The text has this:
Eine hinreichende Haltbarkeit der an sich sehr instabilen Steroide in Arzneimittelformulierungen wird insbesondere erreicht, wenn ein Stabilisator vorliegt. […] In einer bevorzugten Ausführungsform des erfindungsgemäßen Arzneimittels wird deshalb das Steroid mit Ascorbinsäure stabilisiert. […] Die Konzentration des Stabilisators Ascorbinsäure ist vom Gehalt des Steroids abhängig. Je nach dessen Gehalt werden bei Weichgelatinekapseln 0,1 % bis 1 % Ascorbinsäure, bezogen auf die Füllmasse, eingesetzt.

Data set [4] is described as follows: Clinical study in healthy women: serum testosterone after oral DHEA, with dexamethasone suppression. The data set is classed as in vivo, Frauen. Conditions: single dose of dexamethasone, 100 mg DHEA oral, Abbildung 5. The text has this:
In Abbildung 5 werden daher Ergebnisse einer klinischen Studie mit gesunden Frauen dargestellt. Zur kurzzeitigen Unterdrückung der körpereigenen Steroidproduktion erhielten die Probandinnen einmalig Dexamethason. […] Damit ist der Nachweis geführt, daß DHEA bei Frauen nach oraler Aufnahme im Körper zu dem sehr wirksamen Androgen Testosteron umgewandelt wird, d.h. DHEA ist bei Frauen ein Prodrug für Testosteron.

The conditions of data set [5]: 100 mg/Tag oral; Arlt et al., New Engl J Med 1999; cited from earlier work.
A further data set concerns Uterus. Kind of data set: Estrogenic effect on the uterus (uterine mass) of ovariectomised rats. To be noted: female ovariectomised rats, in contrast to 17β-Estradiol; for estrogene Wirkung auf den Uterus (Zunahme der Uterusmasse): Abbildung 3. The format is in vivo, Ratten.
The test system of data set [6] is induzierbaren Stickstoffmonoxid-Oxidase (iNOS). The data set can be described thus: Inhibition of NO release (iNOS) in the brain of ovariectomised rats. The data set is classed as in vivo, Ratten. To be noted: female ovariectomised rats; compared with 17β-Estradiol; Abbildung 2; significant vs OVX control (p<0.01). The text has this:
Eine der typischen Estrogenwirkungen im Gehirn ist die Hemmung der induzierbaren […] (iNOS). […] Die Kontrollgruppe sind ovarektomierte Tiere (OVX), die nur mit dem Lösungsmittel behandelt worden sind. (* Bedeutet statistisch signifikant gegenüber der Kontrollgruppe (p<0.01))

As to `C[C@]12CC[C@@H]3c4ccc(O)cc4CC[C@H]3[C@@H]1CC[C@H]2O` [17α-Estradiol], the “Expression des antiapoptotischen Gens bcl-2 im Hippocampus” value in the data set with bcl-2 was “im Gegensatz”.

For `C[C@]12CC[C@@H]3c4ccc(O)cc4CC[C@H]3[C@@H]1CC[C@@H]2O` [17β-Estradiol, reference compound], the “Expression des antiapoptotischen Gens bcl-2 im Hippocampus” value with bcl-2 is reported as “signifikant erhöht”. The “Induktion der estrogenabhängigen Gene für Oxytocin (OT mRNA)” value in data set [1] is on record as “gelingt”. The “Induktion der estrogenabhängigen Gene für Corticotropin-Releaseinghormon (CRH mRNA)” value in data set [2] is listed as “gelingt”.

With `O=C1O[C@H]([C@@H](O)CO)C(O)=C1O` [Ascorbinsäure], the “stabilisierende Wirkung (Haltbarkeit der Steroide in Arzneimittelformulierungen)” value (“stabilisierende Wirkung” for short) in data set [3] (stabiliser added to the steroid formulation) is on record as “besonders wirksam”.

In the case of `CCCCCCCCCCCCCCCC(=O)OC[C@H](O)[C@H]1OC(=O)C(O)=C1O` [Ascorbylpalmitat], the “stabilisierende Wirkung” value in data set [3] is reported as “deutlich weniger effektiv”.

For the compound `COc1ccc(O)c(C(C)(C)C)c1` [Butylhydroxyanisol], the “stabilisierende Wirkung” value in data set [3] is “deutlich weniger effektiv”.

For the compound `Cc1cc(C(C)(C)C)c(O)c(C(C)(C)C)c1` [Butylhydroxytoluol], in data set [3], the “stabilisierende Wirkung” value is “deutlich weniger effektiv”.

For the compound `C[C@]12CC[C@H](O)CC1=CC[C@@H]1[C@@H]2CC[C@]2(C)C(=O)CC[C@@H]12` [DHEA, Dehydroepiandrosteron], the Serum-Testosteronkonzentrationen entry in data set [4] was “auf das Niveau der unbehandelten Kontrollen hebt”. The “unerwünschte Virilisierungserscheinungen” value in data set [5] was “keine unerwünschten Virilisierungserscheinungen”.

For the compound `C[C@]12CCC3=C(CCc4cc(O)ccc43)[C@@H]1CC[C@H]2O` [J 811, Estra-1,3,5(10),8-tetraen-3,17α-diol], the “estrogene Wirkung auf den Uterus (Zunahme der Uterusmasse)” value with Uterus is “nicht nachweisbar”. Further, the “Hemmung der Freisetzung von NO” value in data set [6] is on record as “genauso stark wie bei dem wichtigsten körpereigenen Estrogen, dem 17β-Estradiol”. Moreover, the “Induktion der estrogenabhängigen Gene für Oxytocin (OT mRNA)” value in data set [1] is listed as “gelingt”. Moreover, the “Induktion der estrogenabhängigen Gene für Corticotropin-Releaseinghormon (CRH mRNA)” value in data set [2] is reported as “gelingt”.

On to `C[C@]12CCC3=C(CCc4cc(O)ccc43)[C@@]13C[C@H]3C[C@H]2O` [J 861, 14α, 15α-Methylenestra-1,3,5(10),8-tetraen-3,17α-diol], for which the “estrogene Wirkung auf den Uterus (Zunahme der Uterusmasse)” value with Uterus is “nicht nachweisbar”. Also, the “Wirkung auf den Uterus” value in the data set on Uterus (Abbildung 4) is on record as “keinerlei Wirkung auf den Uterus”. Also, the “Hemmung der Freisetzung von NO” value in data set [6] is given as “genauso stark wie bei dem wichtigsten körpereigenen Estrogen, dem 17β-Estradiol”. Moreover, the “Expression des antiapoptotischen Gens bcl-2 im Hippocampus” value with bcl-2 is given as “signifikant erhöht”. Besides, the “Induktion der estrogenabhängigen Gene für Oxytocin (OT mRNA)” value in data set [1] was “gelingt”. Moreover, the “Induktion der estrogenabhängigen Gene für Corticotropin-Releaseinghormon (CRH mRNA)” value in data set [2] is “gelingt”.
